One test concerns the target T1, Human plasma kallikrein (Homo sapiens, UniProt P03952).
T1 construct: yields a heavy chain (371 amino acids) and a light chain (248 amino acids); purchased Enzyme Research Laboratories
The experiment in a line: Plasma Kallikrein Assay. The format is biochemical. The conditions noted are these: purified Human plasma kallikrein 0.5 nM, substrate Acetyl-K-P-R-AFC, HEPES pH 7.4, fluorescence 405 Ex/510 Em; read-out: PKal IC50. How it is done: (§1) The effectiveness of a compound of the present invention as an inhibitor of plasma kallikrein can be determined using a relevant purified serine protease, and an appropriate synthetic substrate. The rate of hydrolysis of the chromogenic or fluorogenic substrate by the relevant serine protease was measured both in the absence and presence of compounds of the present invention. Assays were conducted at rt or at 37° C. […] A decrease in the rate of fluorescence change in the presence of inhibitor is indicative of enzyme inhibition. Such methods are known to one skilled in the art. The results of this assay are expressed as the half-maximal inhibitory concentrations (IC50), or the inhibitory constant, Ki.
Plasma kallikrein determinations were made in 50 mM HEPES buffer at pH 7.4 containing 150 mM NaCl, 5 mM CaCl2), and 0.1% PEG 8000 (polyethylene glycol: Fisher Scientific). Determinations were made using purified Human plasma kallikrein at a final concentration of 0.5 nM (Enzyme Research Laboratories) and the synthetic substrate, Acetyl-K-P-R-AFC (Sigma #C6608) at a concentration of […].
Activity assays were performed by diluting a stock solution of substrate at least tenfold to a final concentration ≤0.2 Km into a solution containing enzyme or enzyme equilibrated with inhibitor. Times required to achieve equilibration between enzyme and inhibitor were determined in control experiments. The reactions were performed under linear progress curve conditions and fluorescence increase measured at 405 Ex/510 Em nm. Values were converted to percent inhibition of the control reaction (after subtracting 100% Inhibition value). IC50 was determined by inflection point from a four parameter logistic curve fit. Ki was calculated using the Cheng Prusoff equation, Ki=IC50/(1+([S]/Km)).

The target in the next test is human factor XIa (Homo sapiens, UniProt P03951). As to the kind of experiment: Factor XIa Assay. Format: biochemical. Particulars: human factor XIa 0.04 nM, 30 min pre-incubation at 25° C., substrate GPR-AFC, pH 7.4, 60 min incubation; read-out: FXIa IC50. The procedure:
as §1, with “Coagulation factor XIa” for “plasma kallikrein”
Compounds were pre-incubated for 30 min at 25° C. with human (0.04 nM) factor XIa in 50 mM HEPES buffer with 150 mM sodium chloride, 5 mM calcium chloride, 0.1% PEG 8000, pH 7.4. factor XIa enzymatic activity was determined by addition of the substrate glycine-proline-arginine-7-amido-4-trifluoromethylcoumarin (GPR-AFC) and measurement of the fluorescence at 400/505 nm after a 60 min incubation at 25° C. The % inhibition for each data point was calculated from the data and analyzed using the log (inhibitor) vs. response four parameters equation to determine the half-maximal inhibitory concentrations (IC50). The IC50 were converted to equilibrium inhibitory constants (Ki) using the Cheng-Prusoff equation.

Chain of human factor XIa (P03951 388-625 limits assumed): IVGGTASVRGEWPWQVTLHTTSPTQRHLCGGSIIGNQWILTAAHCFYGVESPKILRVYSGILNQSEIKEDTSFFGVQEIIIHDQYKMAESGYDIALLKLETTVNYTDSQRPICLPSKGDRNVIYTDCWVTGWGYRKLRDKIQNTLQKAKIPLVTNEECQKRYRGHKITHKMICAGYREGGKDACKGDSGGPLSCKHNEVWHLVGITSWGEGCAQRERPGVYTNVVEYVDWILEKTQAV
Chain of human factor XIa (P03951 19-387 partner limits assumed): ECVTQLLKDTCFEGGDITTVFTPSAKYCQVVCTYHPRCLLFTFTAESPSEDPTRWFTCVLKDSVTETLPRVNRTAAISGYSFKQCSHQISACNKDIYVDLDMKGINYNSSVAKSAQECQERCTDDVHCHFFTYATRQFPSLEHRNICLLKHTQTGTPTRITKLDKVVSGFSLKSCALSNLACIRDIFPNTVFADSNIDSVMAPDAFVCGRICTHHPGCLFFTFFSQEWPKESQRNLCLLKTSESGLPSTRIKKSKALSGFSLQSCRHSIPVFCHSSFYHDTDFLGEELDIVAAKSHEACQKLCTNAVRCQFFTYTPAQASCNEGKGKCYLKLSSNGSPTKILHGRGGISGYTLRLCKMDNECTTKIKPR
T1 sequence (P03952 391-638 limits assumed): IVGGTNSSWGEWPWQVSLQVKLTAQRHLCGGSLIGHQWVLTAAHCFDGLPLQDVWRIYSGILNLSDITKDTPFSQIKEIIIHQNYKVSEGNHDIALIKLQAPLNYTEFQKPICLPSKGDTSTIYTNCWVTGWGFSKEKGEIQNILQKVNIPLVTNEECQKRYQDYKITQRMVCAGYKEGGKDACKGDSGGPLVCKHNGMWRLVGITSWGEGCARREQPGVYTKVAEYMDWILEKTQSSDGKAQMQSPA
T1 sequence (P03952 20-390 partner limits assumed): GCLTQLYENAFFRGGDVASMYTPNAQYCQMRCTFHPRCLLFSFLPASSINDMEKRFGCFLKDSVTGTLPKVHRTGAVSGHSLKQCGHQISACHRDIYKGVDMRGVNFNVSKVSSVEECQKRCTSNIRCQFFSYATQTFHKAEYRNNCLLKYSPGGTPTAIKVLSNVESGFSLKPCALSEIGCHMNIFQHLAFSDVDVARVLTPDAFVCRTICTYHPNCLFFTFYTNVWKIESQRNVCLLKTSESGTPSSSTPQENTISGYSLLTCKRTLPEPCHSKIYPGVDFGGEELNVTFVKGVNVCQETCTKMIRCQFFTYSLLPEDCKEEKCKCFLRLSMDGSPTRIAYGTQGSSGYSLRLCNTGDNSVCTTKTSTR

For `Nc1cc(-c2ccc(F)cc2)nn1CC(=O)N1CC[C@@]2(C1)OC(=O)Nc1ccc(Cl)c(F)c12` [Example 1, (R)-1′-(2-(5-Amino-3-(4-fluorophenyl)-1H-pyrazol-1-yl)acetyl)-6-chloro-5-fluorospiro[benzo[d][1,3]oxazine-4,3′-pyrrolidin]-2(1H)-one 2,2,2-trifluoroacetate], the values for the IC50 on Human plasma kallikrein and on human factor XIa were 9.9 nM and 513 nM, respectively.
Take `Nc1cc(-c2ccc3c(c2)OCO3)nn1CC(=O)N1CC[C@@]2(C1)OC(=O)Nc1ccc(Cl)c(F)c12` [Example 2, (R)-1′-(2-(5-Amino-3-(benzo[d][1,3]dioxol-5-y1)-1H-pyrazol-1-yl)acetyl)-6-chloro-5-fluorospiro[benzo[d][1,3]oxazine-4,3′-pyrrolidin]-2(1H)-one]: the results for the IC50 on Human plasma kallikrein and on human factor XIa were 8 nM and 653 nM, respectively.
As for `CC1(c2cc(N)n(CC(=O)N3CC[C@@]4(C3)OC(=O)Nc3ccc(Cl)c(F)c34)n2)CC1` [Example 3, (R)-1′-(2-(5-Amino-3-(1-methylcyclopropyl)-1H-pyrazol-1-yl)acetyl)-6-chloro-5-fluorospiro[benzo[d][1,3]oxazine-4,3′-pyrrolidin]-2(1H)-one], the IC50 at Human plasma kallikrein was 37.8 nM; on human factor XIa it was 347 nM.
As to `Nc1cc(C2CCCC2)nn1CC(=O)N1CC[C@@]2(C1)OC(=O)Nc1ccc(Cl)c(F)c12` [Example 4, (R)-1′-(2-(5-Amino-3-cyclopenty1-1H-pyrazol-1-yl)acetyl)-6-chloro-5-fluorospiro[benzo[d][1,3]oxazine-4,3′-pyrrolidin]-2(1H)-one], the IC50 was determined as 16.3 nM at Human plasma kallikrein and 315 nM on human factor XIa.
As to `Nc1cc(C2CCOCC2)nn1CC(=O)N1CC[C@@]2(C1)OC(=O)Nc1ccc(Cl)c(F)c12` [Example 5, (R)-1′-(2-(5-Amino-3-(tetrahydro-2H-pyran-4-y1)-1H-pyrazol-1-yl)acetyl)-6-chloro-5-fluorospiro[benzo[d][1,3]oxazine-4,3′-pyrrolidin]-2(1H)-one], the results for the IC50 on Human plasma kallikrein and on human factor XIa were 30.6 nM and 685 nM, respectively.
With `COc1ccc(-c2cc(N)n(CC(=O)N3CC[C@@]4(C3)OC(=O)Nc3ccc(Cl)c(F)c34)n2)cc1` [Example 6, (R)-1′-(2-(5-Amino-3-(4-methoxyphenyl)-1H-pyrazol-1-yl)acetyl)-6-chloro-5-fluorospiro[benzo[d][1,3]oxazine-4,3′-pyrrolidin]-2(1H)-one], the IC50 on Human plasma kallikrein turned out to be 10.1 nM; on human factor XIa, 904 nM.
Turning to `Nc1cc(-c2ccc(OC(F)(F)F)cc2)nn1CC(=O)N1CC[C@@]2(C1)OC(=O)Nc1ccc(Cl)c(F)c12` [Example 7, (R)-1′-(2-(5-Amino-3-(4-(trifluoromethoxy)phenyl)-1H-pyrazol-1-yl)acetyl)-6-chloro-5-fluorospiro[benzo[d][1,3]oxazine-4,3′-pyrrolidin]-2(1H)-one], the IC50 at Human plasma kallikrein turned out to be 49 nM; at human factor XIa, 4140 nM.
As to `COc1cccc(-c2cc(N)n(CC(=O)N3CC[C@@]4(C3)OC(=O)Nc3ccc(Cl)c(F)c34)n2)c1` [Example 8, (R)-1′-(2-(5-Amino-3-(3-methoxyphenyl)-1H-pyrazol-1-yl)acetyl)-6-chloro-5-fluorospiro[benzo[d][1,3]oxazine-4,3′-pyrrolidin]-2(1H)-one], the IC50 on Human plasma kallikrein amounted to 11.8 nM; at human factor XIa, 679 nM.
Consider `Nc1cc(-c2cccnc2)nn1CC(=O)N1CC[C@@]2(C1)OC(=O)Nc1ccc(Cl)c(F)c12` [Example 9, (R)-1′-(2-(5-Amino-3-(pyridin-3-yl)-1H-pyrazol-1-yl)acetyl)-6-chloro-5-fluorospiro[benzo[d][1,3]oxazine-4,3′-pyrrolidin]-2(1H)-one], for which the IC50 came out at 12.9 nM on Human plasma kallikrein and 389 nM on human factor XIa.
For `Nc1cc(C2CC2)nn1CC(=O)N1CC[C@@]2(C1)OC(=O)Nc1ccc(Cl)c(F)c12` [Example 10], the IC50 on Human plasma kallikrein amounted to 27.4 nM; on human factor XIa it was 506 nM.
Regarding `Nc1cc(C2CC(F)(F)C2)nn1CC(=O)N1CC[C@@]2(C1)OC(=O)Nc1ccc(Cl)c(F)c12` [Example 11, (R)-1′-(2-(5-Amino-3-(3,3-difluorocyclobutyl)-1H-pyrazol-1-yl)acetyl)-6-chloro-5-fluorospiro[benzo[d][1,3]oxazine-4,3′-pyrrolidin]-2(1H)-one], the values for the IC50 on Human plasma kallikrein and at human factor XIa were 32.3 nM and 672 nM, respectively.
Turning to `Nc1cc(-c2cccc(C(F)(F)F)c2)nn1CC(=O)N1CC[C@@]2(C1)OC(=O)Nc1ccc(Cl)c(F)c12` [Example 12, (R)-1′-(2-(5-Amino-3-(3-(trifluoromethyl)phenyl)-1H-pyrazol-1-yl)acetyl)-6-chloro-5-fluorospiro[benzo[d][1,3]oxazine-4,3′-pyrrolidin]-2(1H)-one], the results for the IC50 on Human plasma kallikrein and at human factor XIa were 37.5 nM and 2710 nM, respectively.
On to `Nc1c2c(nn1CC(=O)N1CC[C@@]3(C1)OC(=O)Nc1ccc(Cl)c(F)c13)CCC2` [Example 13, (R)-1′-(2-(3-Amino-5,6-dihydrocyclopenta[c]pyrazo1-2(4H)-yl)acetyl)-6-chloro-5-fluorospiro[benzo[d] [1,3]oxazine-4,3′-pyrrolidin]-2(1H)-one], for which the figures for the IC50 at Human plasma kallikrein and at human factor XIa were 38.8 nM and 277 nM, respectively.
On the same counts, the results for `Nc1c2c(nn1CC(=O)N1CC[C@@]3(C1)OC(=O)Nc1ccc(Cl)c(F)c13)-c1ccccc1C2` [Example 14, (R)-1′-(2-(3-Aminoindeno[1,2-c]pyrazol-2(4H)-y1)acetyl)-6-chloro-5-fluorospiro[benzo[d] [1,3]oxazine-4,3′-pyrrolidin]-2(1H)-one] are 3.3 nM and 29 nM.
`CC1(C)CCc2c1nn(CC(=O)N1CC[C@@]3(C1)OC(=O)Nc1ccc(Cl)c(F)c13)c2N` [Example 15, (R)-1′-(2-(3-Amino-6,6-dimethyl-5,6-dihydrocyclopenta[c]pyrazo1-2(4H)-yl)acetyl)-6-chloro-5-fluorospiro[benzo[d][1,3]oxazine-4,3′-pyrrolidin]-2(1H)-one]: the IC50 on Human plasma kallikrein amounted to 40.6 nM; at human factor XIa, 100 nM.
Turning to `Nc1cc(-c2cccc(Cl)c2)nn1CC(=O)N1CCC[C@@]2(C1)OC(=O)Nc1ccc(Cl)c(F)c12` [Example 16, (R)-1′-(2-(5-Amino-3-(3-chlorophenyl)-1H-pyrazol-1-yl)acetyl)-6-chloro-5-fluorospiro[benzo[d][1,3]oxazine-4,3′-piperidin]-2(1H)-one], the results for the IC50 on Human plasma kallikrein and on human factor XIa were 20.4 nM and 2820 nM, respectively.
Consider `Nc1cc(-c2ccc(F)cc2)nn1CC(=O)N1CCC[C@@]2(C1)OC(=O)Nc1ccc(Cl)c(F)c12` [Example 17, (R)-1′-(2-(5-Amino-3-(4-fluorophenyl)-1H-pyrazol-1-yl)acetyl)-6-chloro-5-fluorospiro[benzo[d][1,3]oxazine-4,3′-piperidin]-2(1H)-one], for which the figures for the IC50 on Human plasma kallikrein and at human factor XIa were 21 nM and 2550 nM, respectively.
Turning to `Nc1c2c(nn1CC(=O)N1CCC[C@@]3(C1)OC(=O)Nc1ccc(Cl)c(F)c13)-c1ccccc1C2` [Example 18, (R)-1′-(2-(3-Aminoindeno[1,2-c]pyrazol-2(4H)-yl)acetyl)-6-chloro-5-fluorospiro[benzo[d][1,3]oxazine-4,3′-piperidin]-2(1H)-one], the IC50 came out at 2.4 nM at Human plasma kallikrein and 88 nM at human factor XIa.
For `Nc1c(Cl)c(-c2ccc(F)cc2F)nn1CC(=O)N1CC[C@@]2(C1)OC(=O)Nc1ccc(Cl)c(F)c12` [Example 19, (R)-1′-(2-(5-Amino-4-chloro-3-(2,4-difluorophenyl)-1H-pyrazol-1-yl)acetyl)-6-chloro-5-fluorospiro[benzo[d][1.3]oxazine-4,3′-pyrrolidin]-2(1H)-one 2,2,2-trifluoroacetate], the IC50 on Human plasma kallikrein turned out to be 30.3 nM; at human factor XIa, 134 nM.
On to `Nc1c(Cl)c(-c2ccccc2)nn1CC(=O)N1CC[C@@]2(C1)OC(=O)Nc1ccc(Cl)c(F)c12` [Example 20, (R)-1′-(2-(5-Amino-4-chloro-3-phenyl-1H-pyrazol-1-yl)acetyl)-6-chloro-5-fluorospiro[benzo[d][1,3]oxazine-4,3′-pyrrolidin]-2(1H)-one], for which the IC50 on Human plasma kallikrein amounted to 42.3 nM; at human factor XIa, 214 nM.

The values are drawn from patent US20240208994A1, “PLASMA KALLIKREIN INHIBITORS” (Merck Sharp & Dohme LLC, priority 2021, published 2024).
